Measurements published in patent publication US20070224167A1, “Novel HCV inhibitor combinations and methods” (priority 2006, published 2007).

Legend:
[1] = test system: HCV replicon cells (Huh-7 cells); experiment: Inhibition of replicon RNA levels (3-day assay, Taqman); type: cell-based; details: Hepatitis C virus
Protocol: Replicon cells are seeded at ˜5000 cells/well in 96-well collagen I-coated Biocoat plates (Becton Dickinson). Twenty-four hrs post-seeding, inhibitors diluted in DMSO are added to replicon cells (Huh-7 cells). The final concentrations of DMSO and fetal bovine serum are 1% and 10%, respectively. SCH 503034 is serially diluted at 1:2 for a 10-point titration. To each concentration of the SCH 503034, the second inhibitor, HCV-796 or rhIFN-α2b control is titrated in. IFN-α is serially diluted at 1:3, whereas HCV RNA polymerase inhibitor, HCV-796, is serially diluted at 1:2. […] All samples are tested in triplicate. Media and inhibitors are refreshed daily for 3 days at which point the cells are washed with PBS and lysed in 1× cell lysis buffer (Ambion cat #8721). The replicon RNA level is measured using real time PCR (Taqman assay) The amplicon is located in 5B. The PCR primers are: 5B.2F, […] (SEQ ID NO:1) and 5B.2R, […] (SEQ ID NO:2). The probe sequence is FAM-labeled […] (SEQ ID NO:3). GAPDH RNA is used as an endogenous control and is amplified in the same reaction as NS5B (multiplex PCR) using primers and VIC-labeled probe recommended by the manufacturer (PE Applied Biosystem). The real-time RT-PCR reactions are run on an AB1 PRISM 7900HT Sequence Detection System using the following program: 48° C. for 30 min, 95° C. for 10 min, 40 cycles of 95° C. for 15 sec, […] for 1 min. […]

[2] = test system: Huh7-BB7 cells; experiment: Selection of replicon variants with reduced susceptibility, Study B; type: cell-based, HCV genotype 1b; details: prolonged treatment
Protocol: Huh7-BB7 cells are plated at a density of 2-3×10^5 cells per T25 flask and cultured in DMEM medium with 2% FCS in the absence of G418. The cells are treated with DMSO as a control, or HCV-796 alone at 40 and 80 nM, or SCH 503034 alone at 200, 400, 600 and 800 nM, or a combination of HCV-796 and SCH 503034 at 40/400, 80/400, 40/800 and 80/800 nM, respectively, for HCV-796 and SCH 503034. The DMSO concentration in both drug-treated and control cells is 0.5% (v/v). Tissue culture plates are incubated in a 37° C. incubator containing 5% CO2. When cells reach about 80% confluence (about 2-3 days), cells are passaged in a 1:3 dilution and the old medium is replaced with fresh medium containing the compounds at the respective concentrations. Cell pellets containing […] are collected during each passage, and monitored for HCV RNA using quantitative Taqman RT-PCR as described above. […]
Drug susceptibility of the replicon variants is evaluated as previously described in the section “Intracellular antiviral activities in HCV Replicon”. […] The plate is incubated for 72 hours at 37° C. and 5% CO2 before quantification of HCV and GAPDH RNAs. The amounts of HCV, rRNA and GAPDH RNAs are quantified using the TaqMan RT-PCR assay as described above (see Quantification of HCV and 18S Ribosomal RNAs).

[3] = test system: replicon variants with reduced susceptibility to HCV-796, including C316Y; experiment: Susceptibility of HCV-796 resistant replicons to SCH 503034; type: cell-based; details: 72 hours, vs wild-type replicon
Protocol: The antiviral activity of SCH 503034 against the replicon variants that have shown reduced susceptibility to HCV-796 is evaluated. Briefly, the replicon-containing cells are seeded in 96-well plates at a subconfluent density (7000 cells/well) in a medium containing 2% FBS without G418. SCH 503034 solubilized with 100% dimethylsulfoxide (DMSO) is prepared in a […], 2-fold dilution series, with a final DMSO concentration of 0.5% and a final volume of […]. The final concentrations for SCH 503034 are […], 6.3, 12.5, 25, 50, 100, 200, 400, 800, 1600 and 3200 nM. The plate is incubated for 72 hours at 37° C. and 5% CO2 before quantification of HCV and GAPDH RNAs.

CNC(=O)c1c(-c2ccc(F)cc2)oc2cc(N(CCO)S(C)(=O)=O)c(C3CC3)cc12 [HCV-796, 5-cyclopropyl-2-(4-fluoro-phenyl)-6-[(2-hydroxy-ethyl)-methanesulfonyl-amino]-benzofuran-3-carboxylic acid methylamide]
IC90 [1]: 30 nM
Selection of resistant replicon variants ([2]; up to 80 nM HCV-796 alone): selection of replicon variants that have reduced susceptibility

CC(C)(C)NC(=O)N[C@H](C(=O)N1C[C@H]2[C@@H]([C@H]1C(=O)NC(CC1CCC1)C(=O)C(N)=O)C2(C)C)C(C)(C)C (stereo partly drawn) [SCH 503034, (1R,5S)—N-[3-amino-1-(cyclobutylmethyl)-2,3-dioxopropyl]-3-[2(S)-[[[(1,1-dimethylethyl)amino]carbonyl]amino]-3,3-dimethyl-1-oxobutyl]-6,6-dimethyl-3-azabicyclo[3.1.0]hexan-2(S)-carboxamide]
Activity of SCH 503034 on HCV-796 resistant replicons [3]: active
Activity of SCH 503034 on HCV-796 resistant replicons ([3]; listed as SCH-503034): equivalent inhibitory activity
IC90 [1]: 400 nM
Selection of resistant replicon variants ([2]; 800 nM SCH 503034 alone): selection of replicon variants that have reduced susceptibility
